Results from paper PMC5791972 (PLoS ONE, 2018).
Where two headings read alike, the source gives them in different places.

Tests used:
5-HT2C (h) = biological target: T1, 5-HT2C (h) (Homo sapiens, UniProt P28335); type: binding; conditions: 1 h, 1.0E-06 M
T1 construct: host or cells: HEK-293 cells
T1 sequence (P28335 33-458): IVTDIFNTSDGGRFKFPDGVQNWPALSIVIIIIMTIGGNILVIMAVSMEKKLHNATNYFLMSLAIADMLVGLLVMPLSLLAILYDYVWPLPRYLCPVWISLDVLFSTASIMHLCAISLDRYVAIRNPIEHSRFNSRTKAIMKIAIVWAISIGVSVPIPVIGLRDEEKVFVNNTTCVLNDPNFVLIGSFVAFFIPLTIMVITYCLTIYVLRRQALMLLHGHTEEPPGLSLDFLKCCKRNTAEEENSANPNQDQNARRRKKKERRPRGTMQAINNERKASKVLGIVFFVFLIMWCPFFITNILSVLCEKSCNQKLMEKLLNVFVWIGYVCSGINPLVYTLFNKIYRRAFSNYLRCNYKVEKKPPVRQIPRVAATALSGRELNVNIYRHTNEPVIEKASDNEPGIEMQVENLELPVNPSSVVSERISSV

[1] = biological target: T2, norepinephrine transporter (h) (Homo sapiens, UniProt P23975); type: binding
T2 construct: host or cells: CHO cells
T2 sequence (P23975 whole entry): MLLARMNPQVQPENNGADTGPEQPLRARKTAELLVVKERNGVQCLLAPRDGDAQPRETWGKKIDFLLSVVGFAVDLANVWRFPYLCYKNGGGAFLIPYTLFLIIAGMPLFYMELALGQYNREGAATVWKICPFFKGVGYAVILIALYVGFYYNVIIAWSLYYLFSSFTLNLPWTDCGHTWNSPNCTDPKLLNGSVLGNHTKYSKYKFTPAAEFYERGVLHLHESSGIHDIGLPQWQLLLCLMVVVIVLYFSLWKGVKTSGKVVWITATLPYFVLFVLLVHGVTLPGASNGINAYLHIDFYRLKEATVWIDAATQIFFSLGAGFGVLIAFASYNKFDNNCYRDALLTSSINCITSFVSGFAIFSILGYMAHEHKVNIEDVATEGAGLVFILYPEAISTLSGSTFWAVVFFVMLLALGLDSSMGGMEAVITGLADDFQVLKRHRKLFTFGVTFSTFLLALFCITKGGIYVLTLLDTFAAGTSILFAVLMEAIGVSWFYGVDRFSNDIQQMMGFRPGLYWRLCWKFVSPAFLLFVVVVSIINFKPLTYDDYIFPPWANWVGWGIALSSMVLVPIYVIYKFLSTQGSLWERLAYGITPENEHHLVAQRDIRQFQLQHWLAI

hTRPA1 = biological target: T3, hTRPA1 (Homo sapiens, UniProt O75762); test: Ion channel selectivity patch clamp; type: cell-based
T3 construct: The cDNAs for various full-length ion channels were subcloned into pcDNA5/TO; expressed in transfected cells; host or cells: T-REx-293 (general cell paragraph)
T3 sequence (O75762 whole entry): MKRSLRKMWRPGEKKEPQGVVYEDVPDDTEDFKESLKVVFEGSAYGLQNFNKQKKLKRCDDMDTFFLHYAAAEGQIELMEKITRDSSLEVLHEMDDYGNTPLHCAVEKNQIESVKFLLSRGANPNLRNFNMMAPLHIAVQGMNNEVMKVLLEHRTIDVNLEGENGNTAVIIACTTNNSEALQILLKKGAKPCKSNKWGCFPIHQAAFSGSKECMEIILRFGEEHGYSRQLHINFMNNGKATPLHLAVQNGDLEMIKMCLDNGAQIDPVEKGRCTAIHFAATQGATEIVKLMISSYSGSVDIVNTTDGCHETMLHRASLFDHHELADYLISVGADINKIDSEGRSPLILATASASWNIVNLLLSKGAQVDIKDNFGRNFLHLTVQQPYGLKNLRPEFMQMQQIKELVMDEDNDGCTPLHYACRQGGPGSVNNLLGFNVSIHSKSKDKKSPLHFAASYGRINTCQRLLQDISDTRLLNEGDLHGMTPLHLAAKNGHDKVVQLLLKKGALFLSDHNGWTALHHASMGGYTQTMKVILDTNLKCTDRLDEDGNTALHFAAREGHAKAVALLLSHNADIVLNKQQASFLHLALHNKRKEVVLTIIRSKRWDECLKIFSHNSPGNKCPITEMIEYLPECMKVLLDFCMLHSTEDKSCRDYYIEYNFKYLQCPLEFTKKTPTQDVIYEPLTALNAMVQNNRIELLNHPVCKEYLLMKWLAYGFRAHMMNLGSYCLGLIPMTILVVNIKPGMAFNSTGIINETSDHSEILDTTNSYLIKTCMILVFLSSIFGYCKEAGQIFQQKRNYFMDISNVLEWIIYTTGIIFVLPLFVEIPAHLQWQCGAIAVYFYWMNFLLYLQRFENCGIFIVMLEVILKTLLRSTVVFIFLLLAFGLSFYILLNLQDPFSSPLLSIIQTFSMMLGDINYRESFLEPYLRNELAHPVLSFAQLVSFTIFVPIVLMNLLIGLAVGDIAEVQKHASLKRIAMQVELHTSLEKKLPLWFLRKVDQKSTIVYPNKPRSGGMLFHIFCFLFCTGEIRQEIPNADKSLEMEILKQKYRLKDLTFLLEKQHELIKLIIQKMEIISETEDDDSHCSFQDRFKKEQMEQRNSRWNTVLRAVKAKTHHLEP

α2B (h) = biological target: T4, α2B (h) (Homo sapiens, UniProt P18089); test: biochemical; type: binding; conditions: 1.0E-06 M
T4 construct: host or cells: CHO cells
T4 sequence (P18089 1-450): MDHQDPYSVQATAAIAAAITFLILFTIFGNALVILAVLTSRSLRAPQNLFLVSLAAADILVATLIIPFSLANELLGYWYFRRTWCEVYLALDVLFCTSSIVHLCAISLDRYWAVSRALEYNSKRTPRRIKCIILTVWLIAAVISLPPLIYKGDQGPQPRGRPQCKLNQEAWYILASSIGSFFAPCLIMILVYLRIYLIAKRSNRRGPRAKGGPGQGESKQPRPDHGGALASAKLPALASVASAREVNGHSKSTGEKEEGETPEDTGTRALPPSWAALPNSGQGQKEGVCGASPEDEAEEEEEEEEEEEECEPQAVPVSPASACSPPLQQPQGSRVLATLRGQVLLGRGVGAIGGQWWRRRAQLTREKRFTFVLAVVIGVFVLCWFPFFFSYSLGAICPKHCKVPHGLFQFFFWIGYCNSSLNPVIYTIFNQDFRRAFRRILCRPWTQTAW

5-HT2A (h) = biological target: T5, 5-HT2A (h) (Homo sapiens, UniProt P28223); type: binding; conditions: 1.0E-06 M
T5 construct: host or cells: HEK-293 cells
T5 sequence (P28223 whole entry): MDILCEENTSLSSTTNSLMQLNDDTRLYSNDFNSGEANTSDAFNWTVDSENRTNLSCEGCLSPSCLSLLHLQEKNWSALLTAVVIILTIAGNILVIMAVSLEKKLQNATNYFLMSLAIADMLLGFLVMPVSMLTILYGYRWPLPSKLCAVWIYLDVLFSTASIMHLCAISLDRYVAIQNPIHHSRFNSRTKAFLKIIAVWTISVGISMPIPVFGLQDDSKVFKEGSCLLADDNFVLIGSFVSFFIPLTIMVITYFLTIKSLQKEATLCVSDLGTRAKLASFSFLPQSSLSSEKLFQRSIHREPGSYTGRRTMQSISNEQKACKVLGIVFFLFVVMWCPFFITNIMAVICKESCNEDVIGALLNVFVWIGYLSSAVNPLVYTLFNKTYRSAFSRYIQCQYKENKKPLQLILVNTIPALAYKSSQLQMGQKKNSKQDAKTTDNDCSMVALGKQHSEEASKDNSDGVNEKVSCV

MT3 (ML2) = biological target: T6, MT3 (ML2) (Mesocricetus auratus, UniProt A0ABM2YAB8); type: binding, hamster
T6 construct: tissue Cerep; host or cells: hamster brain
T6 sequence (A0ABM2YAB8 1-231): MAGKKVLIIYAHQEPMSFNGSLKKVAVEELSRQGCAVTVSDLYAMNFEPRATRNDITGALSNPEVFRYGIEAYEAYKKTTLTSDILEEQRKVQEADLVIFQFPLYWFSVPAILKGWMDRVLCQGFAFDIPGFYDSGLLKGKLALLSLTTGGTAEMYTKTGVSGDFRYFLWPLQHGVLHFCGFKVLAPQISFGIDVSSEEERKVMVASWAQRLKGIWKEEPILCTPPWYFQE

CB1 (h) = biological target: T7, CB1 (h) (Homo sapiens, UniProt P21554); type: binding; conditions: 1.0E-06 M
T7 construct: host or cells: CHO cells
T7 sequence (P21554 whole entry): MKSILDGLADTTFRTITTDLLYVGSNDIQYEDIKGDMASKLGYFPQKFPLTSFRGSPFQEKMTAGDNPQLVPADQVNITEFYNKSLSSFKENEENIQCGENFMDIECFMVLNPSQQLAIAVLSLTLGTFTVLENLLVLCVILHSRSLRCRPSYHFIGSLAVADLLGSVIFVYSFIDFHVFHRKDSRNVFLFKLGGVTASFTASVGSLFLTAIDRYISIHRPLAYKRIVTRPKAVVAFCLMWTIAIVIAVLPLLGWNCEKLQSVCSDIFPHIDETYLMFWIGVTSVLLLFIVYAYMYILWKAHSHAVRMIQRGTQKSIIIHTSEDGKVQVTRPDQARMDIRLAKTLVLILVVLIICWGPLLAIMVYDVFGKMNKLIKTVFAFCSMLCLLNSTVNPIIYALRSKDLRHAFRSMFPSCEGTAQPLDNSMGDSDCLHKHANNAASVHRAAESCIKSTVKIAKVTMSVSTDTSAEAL

δ2 (DOP) (h) = biological target: T8, δ2 (DOP) (h) (Homo sapiens, UniProt P41143); type: binding; conditions: 1.0E-06 M
T8 construct: host or cells: CHO cells
T8 sequence (P41143 whole entry): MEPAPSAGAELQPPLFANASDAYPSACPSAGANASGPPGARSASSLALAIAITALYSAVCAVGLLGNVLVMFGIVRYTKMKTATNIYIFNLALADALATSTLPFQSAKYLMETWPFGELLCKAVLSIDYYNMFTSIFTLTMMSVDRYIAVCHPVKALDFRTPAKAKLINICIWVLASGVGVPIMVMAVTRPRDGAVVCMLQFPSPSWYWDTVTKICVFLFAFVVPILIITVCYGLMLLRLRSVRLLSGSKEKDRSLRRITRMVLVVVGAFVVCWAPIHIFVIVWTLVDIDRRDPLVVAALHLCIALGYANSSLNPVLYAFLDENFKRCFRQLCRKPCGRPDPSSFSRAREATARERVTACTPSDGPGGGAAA

5-HT1A (h) = biological target: T9, 5-HT1A (h) (Homo sapiens, UniProt P08908); type: binding; conditions: 1.0E-06 M
T9 construct: host or cells: HEK-293 cells
T9 sequence (P08908 1-422): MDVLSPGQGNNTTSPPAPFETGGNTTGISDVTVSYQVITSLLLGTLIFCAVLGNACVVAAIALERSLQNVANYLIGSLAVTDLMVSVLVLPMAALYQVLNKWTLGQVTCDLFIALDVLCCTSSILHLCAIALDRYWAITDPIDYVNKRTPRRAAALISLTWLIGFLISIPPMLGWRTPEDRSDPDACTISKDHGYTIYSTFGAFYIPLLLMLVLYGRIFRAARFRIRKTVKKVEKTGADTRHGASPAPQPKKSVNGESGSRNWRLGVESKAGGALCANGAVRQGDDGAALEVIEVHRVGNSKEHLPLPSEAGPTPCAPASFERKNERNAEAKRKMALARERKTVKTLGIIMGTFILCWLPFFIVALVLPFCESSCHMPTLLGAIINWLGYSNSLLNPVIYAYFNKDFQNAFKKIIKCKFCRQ

Cav1.2 = Cav1.2 (Homo sapiens, UniProt Q13936); test: Ion channel selectivity patch clamp
Nav1.2 = biological target: T10, Nav1.2 (Homo sapiens, UniProt Q99250); test: Ion channel selectivity patch clamp; type: cell-based
T10 construct: The cDNAs for various full-length ion channels were subcloned into pcDNA5/TO; expressed in transfected cells
T10 sequence (Q99250 whole entry): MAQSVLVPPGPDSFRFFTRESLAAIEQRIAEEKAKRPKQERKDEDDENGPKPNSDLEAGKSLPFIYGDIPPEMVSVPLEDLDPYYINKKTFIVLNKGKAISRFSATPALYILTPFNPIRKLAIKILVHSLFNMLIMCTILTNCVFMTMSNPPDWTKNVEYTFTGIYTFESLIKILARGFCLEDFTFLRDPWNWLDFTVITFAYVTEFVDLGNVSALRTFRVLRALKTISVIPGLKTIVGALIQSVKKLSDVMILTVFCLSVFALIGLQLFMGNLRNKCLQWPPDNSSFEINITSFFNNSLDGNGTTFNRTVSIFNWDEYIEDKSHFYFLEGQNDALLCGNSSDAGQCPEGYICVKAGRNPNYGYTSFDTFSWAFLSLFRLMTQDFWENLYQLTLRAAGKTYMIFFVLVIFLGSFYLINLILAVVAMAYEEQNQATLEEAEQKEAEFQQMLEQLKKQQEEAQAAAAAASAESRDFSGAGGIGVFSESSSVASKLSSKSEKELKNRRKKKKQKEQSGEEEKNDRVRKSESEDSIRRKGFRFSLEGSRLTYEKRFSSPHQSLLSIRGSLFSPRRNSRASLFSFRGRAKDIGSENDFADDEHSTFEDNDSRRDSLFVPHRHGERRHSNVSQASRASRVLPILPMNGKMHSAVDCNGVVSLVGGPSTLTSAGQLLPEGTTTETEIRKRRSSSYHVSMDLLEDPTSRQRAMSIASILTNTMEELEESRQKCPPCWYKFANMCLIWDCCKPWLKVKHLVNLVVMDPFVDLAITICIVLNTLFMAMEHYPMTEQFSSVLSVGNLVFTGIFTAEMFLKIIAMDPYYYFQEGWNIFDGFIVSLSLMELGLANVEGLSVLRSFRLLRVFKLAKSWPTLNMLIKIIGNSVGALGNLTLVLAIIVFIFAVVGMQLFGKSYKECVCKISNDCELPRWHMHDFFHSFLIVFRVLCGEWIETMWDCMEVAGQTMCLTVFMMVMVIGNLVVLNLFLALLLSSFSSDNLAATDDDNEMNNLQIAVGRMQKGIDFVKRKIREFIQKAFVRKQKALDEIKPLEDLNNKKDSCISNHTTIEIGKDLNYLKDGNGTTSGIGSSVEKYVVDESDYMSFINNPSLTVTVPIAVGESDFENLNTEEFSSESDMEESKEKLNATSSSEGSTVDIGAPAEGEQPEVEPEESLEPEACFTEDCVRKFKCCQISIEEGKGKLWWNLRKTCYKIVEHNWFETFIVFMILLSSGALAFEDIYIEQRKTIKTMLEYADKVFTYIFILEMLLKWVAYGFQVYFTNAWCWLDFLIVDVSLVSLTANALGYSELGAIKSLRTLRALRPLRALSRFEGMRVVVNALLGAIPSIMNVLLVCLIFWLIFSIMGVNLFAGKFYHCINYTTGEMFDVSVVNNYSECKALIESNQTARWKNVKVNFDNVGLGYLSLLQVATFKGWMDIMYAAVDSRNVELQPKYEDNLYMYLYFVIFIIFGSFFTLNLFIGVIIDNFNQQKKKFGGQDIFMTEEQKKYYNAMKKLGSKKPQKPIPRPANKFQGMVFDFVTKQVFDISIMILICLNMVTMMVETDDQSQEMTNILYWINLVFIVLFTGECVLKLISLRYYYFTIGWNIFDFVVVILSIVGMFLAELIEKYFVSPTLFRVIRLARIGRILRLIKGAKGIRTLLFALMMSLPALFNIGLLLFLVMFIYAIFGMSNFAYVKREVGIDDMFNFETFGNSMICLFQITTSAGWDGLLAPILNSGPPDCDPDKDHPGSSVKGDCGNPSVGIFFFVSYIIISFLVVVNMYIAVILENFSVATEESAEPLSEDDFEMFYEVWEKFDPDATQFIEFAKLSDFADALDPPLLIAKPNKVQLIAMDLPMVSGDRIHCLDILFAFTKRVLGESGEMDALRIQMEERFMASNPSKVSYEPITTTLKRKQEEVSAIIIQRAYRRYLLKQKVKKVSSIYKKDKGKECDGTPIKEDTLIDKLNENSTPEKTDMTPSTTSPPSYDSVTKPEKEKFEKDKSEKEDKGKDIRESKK

SMILES | inhibition at 1 µM (5-HT2C (h); read-out: % Inhibition 1st) [%] | inhibition at 1 µM (5-HT2C (h); read-out: % Inhibition 2nd) [%] | inhibition at 1 µM (5-HT2C (h); read-out: % Inhibition Mean) [%] | inhibition at 1 µM ([1]; read-out: % Inhibition 1st) [%] | inhibition at 1 µM ([1]; read-out: % Inhibition 2nd) [%] | inhibition at 1 µM ([1]; read-out: % Inhibition Mean) [%] | inhibition at 1 µM (α2B (h); read-out: % Inhibition 1st) [%] | inhibition at 1 µM (α2B (h); read-out: % Inhibition 2nd) [%] | inhibition at 1 µM (α2B (h); read-out: % Inhibition Mean) [%] | inhibition at 1 µM (5-HT2A (h); read-out: % Inhibition 1st) [%] | inhibition at 1 µM (5-HT2A (h); read-out: % Inhibition 2nd) [%] | inhibition at 1 µM (5-HT2A (h); read-out: % Inhibition Mean) [%] | inhibition at 1 µM (MT3 (ML2); read-out: % Inhibition 1st) [%] | inhibition at 1 µM (MT3 (ML2); read-out: % Inhibition 2nd) [%] | inhibition at 1 µM (MT3 (ML2); read-out: % Inhibition Mean) [%] | inhibition at 1 µM (CB1 (h); read-out: % Inhibition 1st) [%] | inhibition at 1 µM (CB1 (h); read-out: % Inhibition 2nd) [%] | inhibition at 1 µM (CB1 (h); read-out: % Inhibition Mean) [%] | inhibition at 1 µM (δ2 (DOP) (h); read-out: % Inhibition 1st) [%] | inhibition at 1 µM (δ2 (DOP) (h); read-out: % Inhibition 2nd) [%] | further results
Cn1c(=O)n(CCCO)c(=O)c2c1nc(Oc1cccc(OC(F)(F)F)c1)n2Cc1ccc(Cl)cc1 [HC-608] | -8.5 | -4.7 | -6.6 | 4.8 | 18.1 | 11.5 | -7.4 | -0.7 | -4 | 1.8 | -14.3 | -6.2 | -0.7 | 1.2 | 0.2 | 27 | 25.5 | 26.2 | -10.8 | 3.1 | IC50 (hTRPA1): > 1640 nM; inhibition at 1 µM (δ2 (DOP) (h); read-out: % Inhibition Mean): -3.9%; inhibition at 1 µM (5-HT1A (h); read-out: % Inhibition 1st): -0.2%; inhibition at 1 µM (5-HT1A (h); read-out: % Inhibition 2nd): 14.8%; inhibition at 1 µM (5-HT1A (h); read-out: % Inhibition Mean): 7.3%; IC50 (Cav1.2): > 1640 nM; IC50 (Nav1.2): > 1640 nM
Cn1c(=O)n(CCCO)c(=O)c2c1nc(Oc1cccc(Cl)c1)n2Cc1ccc(Cl)cc1 [HC-070] | -13.4 | -9.5 | -11.5 | -10.1 | -0.6 | -5.4 | -22.3 | -1.2 | -11.7 | -1.3 | 6.1 | 2.4 | 46.1 | 49.5 | 47.8 | 8.4 | 18.8 | 13.6 | 6.8 | 5.9 | IC50 (hTRPA1; 2-10 µM AITC, read-out: IC50): > 1900 nM; inhibition at 1 µM (δ2 (DOP) (h); read-out: % Inhibition Mean): 6.3%; inhibition at 1 µM (5-HT1A (h); read-out: % Inhibition 1st): 8.7%; inhibition at 1 µM (5-HT1A (h); read-out: % Inhibition 2nd): -24.2%; inhibition at 1 µM (5-HT1A (h); read-out: % Inhibition Mean): -7.7%; IC50 (Cav1.2): > 1900 nM; IC50 (Nav1.2): > 1900 nM
